Measurements taken from patent US6972299B2, “Phenylethynyl and styryl derivatives of imidazole and fused ring heterocycles” (Hoffmann-La Roche Inc., priority 2000, dated 2005).

target: T1, rat mGlu 5a receptor (Rattus norvegicus, UniProt P31424); assay: [Ca2+]i measurement (FLIPR) on mGlu 5a transfected EBNA cells, antagonist mode; assay type: cell-based; details: rat mGlu 5a transiently transfected EBNA cells, Fluo 3-AM, tested against 10 μM glutamate as agonist
T1 construct: expressed in transfected cells; host or cells: EBNA cells (transient transfection)
Method: The pharmacological activity of all of the example compounds was tested using the following method: • cDNA encoding rat mGlu 5a receptor was transiently transfected into EBNA cells using a procedure described by E.-J. Schlaeger and K. Christensen (Transient gene expression in mammalian cells grown in serum-free suspension culture; Cytotechnology, 30: 71-83,1999). [Ca^2+]i measurements were performed on mGlu 5a transfected EBNA cells after incubation of the cells with Fluo 3-AM (obtainable by FLUKA, 0.5 μM final concentration) for 1 hour at 37° C. followed by 4 washes with assay buffer (DMEM supplemented with Hank's salt and 20 mM HEPES. [Ca^2+]i measurements were done using a fluorometric imaging plate reader (FLIPR, Molecular Devices Corporation, La Jolla, Calif., USA). When compounds were evaluated as antagonists they were tested against 10 μM glutamate as agonist.
The inhibition (antagonists) curves were fitted with a four parameter logistic equation giving IC50, and Hill coefficient using the iterative non linear curve fitting software Origin (Microcal Software Inc., Northampton, Mass., USA).

T1 sequence (P31424 21-1171 isoform P31424-2 limits assumed): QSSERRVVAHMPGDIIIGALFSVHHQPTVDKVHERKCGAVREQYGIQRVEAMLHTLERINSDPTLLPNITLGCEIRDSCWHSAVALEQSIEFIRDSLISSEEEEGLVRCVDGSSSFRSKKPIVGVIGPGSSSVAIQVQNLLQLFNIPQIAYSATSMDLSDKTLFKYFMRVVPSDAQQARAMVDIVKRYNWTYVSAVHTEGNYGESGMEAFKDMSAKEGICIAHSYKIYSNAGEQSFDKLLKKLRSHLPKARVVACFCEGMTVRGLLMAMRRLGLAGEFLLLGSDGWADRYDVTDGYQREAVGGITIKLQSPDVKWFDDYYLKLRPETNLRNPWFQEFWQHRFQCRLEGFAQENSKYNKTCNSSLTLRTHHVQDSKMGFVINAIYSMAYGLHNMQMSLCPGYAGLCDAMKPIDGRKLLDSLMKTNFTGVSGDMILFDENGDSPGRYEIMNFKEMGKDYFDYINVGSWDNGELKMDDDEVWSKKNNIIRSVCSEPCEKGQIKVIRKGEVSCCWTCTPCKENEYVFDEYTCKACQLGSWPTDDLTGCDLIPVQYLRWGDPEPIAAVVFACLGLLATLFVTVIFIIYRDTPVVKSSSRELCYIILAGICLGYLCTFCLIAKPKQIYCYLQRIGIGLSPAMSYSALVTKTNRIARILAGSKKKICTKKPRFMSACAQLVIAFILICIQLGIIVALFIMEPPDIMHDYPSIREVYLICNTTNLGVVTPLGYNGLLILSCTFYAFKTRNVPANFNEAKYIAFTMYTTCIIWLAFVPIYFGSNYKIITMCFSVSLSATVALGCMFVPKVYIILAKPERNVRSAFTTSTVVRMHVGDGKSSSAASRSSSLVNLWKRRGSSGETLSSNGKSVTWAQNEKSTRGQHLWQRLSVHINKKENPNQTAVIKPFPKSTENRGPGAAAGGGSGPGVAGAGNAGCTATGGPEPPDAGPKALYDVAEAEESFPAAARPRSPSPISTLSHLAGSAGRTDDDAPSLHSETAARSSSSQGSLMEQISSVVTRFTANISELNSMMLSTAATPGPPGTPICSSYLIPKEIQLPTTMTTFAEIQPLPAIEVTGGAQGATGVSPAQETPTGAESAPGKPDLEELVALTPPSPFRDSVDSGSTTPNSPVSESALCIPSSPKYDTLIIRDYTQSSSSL

Row | Compound | IC50
1 | Cn1ccnc1C#Cc1ccccc1Cl [Example 20, 2-(2-Chloro-phenylethynyl)-1-methyl-1H-imidazole] | 1.1 µM
2 | Cc1ccc(C=Cc2nc(C(C)C)c(C(C)C)n2C)cc1 [Example 42, 4,5-Diisopropyl-1-methyl-2-(2-p-tolyl-vinyl)-1H-imidazole] | 3.25 µM
3 | CCOC(=O)c1c(C)nc(C#Cc2cccc(C)c2)n1C [Example 9, 3,5-dimethyl-2-m-tolylethynyl-3H-imidazole-4-carboxylic acid ethyl ester] | 0.13 µM
4 | COc1cc(C)c(C=Cc2nc(C(C)C)c(C(C)C)n2C)c(C)c1C [Example 36, 4,5-Diisopropyl-2-[2-(4-methoxy-2,3,6-trimethyl-phenyl)-vinyl]-1-methyl-1H-imidazole] | 5 to 10 µM
5 | Cn1cnc(C#Cc2ccccc2)c1C=O [Example 27, 3-Methyl-5-phenylethynyl-3H-imidazole-4-carbaldehyde] | 1.79 µM
6 | CCCCOc1ccc(C=Cc2nc(C(C)C)c(C(C)C)n2C)cc1 [Example 35, 2-[2-(4-Butoxy-phenyl)-vinyl]-4,5-diisopropyl-1-methyl-1H-imidazole] | 5 to 10 µM
7 | CCOC(=O)c1c(C)nc(C#Cc2ccccc2)n1C [Example 1, 3,5-Dimethyl-2-phenylethynyl-3H-imidazole-4-carboxylic acid ethyl ester] | 0.25 µM
8 | CC(C)c1nc(C=Cc2ccc(Cl)cc2)n(C)c1C(C)C [Example 34, 2-[2-(4-Chloro-phenyl)-vinyl]-4,5-diisopropyl-1-methyl-1H-imidazole] | 5 to 10 µM
9 | C(#Cc1ncc[nH]1)c1ccccc1 [Example 6, 2-Phenylethynyl-1H-imidazole] | 0.2 µM
10 | CCOC(=O)c1c(C)nc(C#Cc2ccc(Cl)cc2)n1C [Example 14, 2-(4-Chloro-phenylethynyl)-3,5-dimethyl-3H-imidazole-4-carboxylic acid ethyl ester] | < 10 µM
11 | Cc1nc(C#Cc2ccccc2)c([N+](=O)[O-])n1CC(O)CCl (stereo not drawn) [Example 26, 1-Chloro-3-(2-methyl-5-nitro-4-phenylethynyl-imidazol-1-yl)-propan-2-ol] | 0.23 µM
12 | C(#Cc1c[nH]cn1)c1ccccc1 [Example 28, 4-Phenylethynyl-1H-imidazole] | 3.36 µM
13 | CCOC(=O)c1c(C)nc(C#Cc2ccc(-c3ccccc3)cc2)n1C [Example 16, 2-Biphenyl-4-ylethynyl-3,5-dimethyl-3H-imidazole-4-carboxylic acid ethyl ester] | 0.21 µM
14 | O=[N+]([O-])c1cnc(C#Cc2ccccc2)n1CCO [Example 5, 2-(5-Nitro-2-phenylethynyl-imidazol-1-yl)-ethanol] | 2.11 µM
15 | CCOC(=O)c1c(C)nc(C#Cc2ccccc2F)n1C [Example 17, 2-(2-Fluoro-phenylethynyl)-3,5-dimethyl-3H-imidazole-4-carboxylic acid ethyl ester] | 0.09 µM
16 | Cn1cnc(Br)c1C=Cc1ccccc1 [Example 43, 4-Bromo-1-methyl-5-styryl-1H-imidazole] | 3.06 µM
17 | CCOC(=O)c1c(C)nc(C#Cc2cccc(OC)c2)n1C [Example 3, 2-(3-Methoxy-phenylethynyl)-3,5-dimethyl-3H-imidazole-4-carboxylic acid ethyl ester] | 0.35 µM
18 | Cc1cc(C#Cc2ccccc2)n(C)n1 [Example 31, 1,3-Dimethyl-5-phenylethynyl-1H-pyrazole] | 5 to 10 µM
19 | CCOC(=O)c1c(C)nc(C#Cc2ccc(F)cc2)n1C [Example 15, 2-(4-Fluoro-phenylethynyl)-3,5-dimethyl-3H-imidazole-4-carboxylic acid ethyl ester] | 0.25 µM

Row | Compound | IC50
20 | CC(C)c1nc(C=Cc2ccccc2)n(C)c1C(C)C [Example 32, 4,5-Diisopropyl-1-methyl-2-styryl-1H-imidazole] | 1.82 µM
21 | CCOC(=O)c1c(C)nc(C#Cc2cccc(NC(C)=O)c2)n1C [Example 10, 2-(3-Acetylamino-phenylethynyl)-3,5-dimethyl-3H-imidazole-4-carboxylic acid ethyl ester] | 2.12 µM
22 | CCOC(=O)c1nc(C#Cc2ccccc2)n(-c2ccccc2)c1C [Example 8, 5-Methyl-1-phenyl-2-phenylethynyl-1H-imidazole-4-carboxylic acid ethyl ester] | < 10 µM
23 | CCOC(=O)c1c(C)nc(C#Cc2cccc(-n3c(C)ccc3C)c2)n1C [Example 11] | 0.18 µM
24 | CCOC(=O)c1[nH]c(C#Cc2ccccc2)nc1C [Example 2, 5-Methyl-2-phenylethynyl-3H-imidazole-4-carboxylic acid ethyl ester] | 2.4 µM
25 | Cn1ccnc1C#Cc1ccccc1 [Example 4, 1-Methyl-2-phenylethynyl-1H-imidazole] | 0.72 µM
26 | COc1ccc(C=Cc2nc(C(C)C)c(C(C)C)n2C)cc1 [Example 37, 4,5-diisopropyl-2-[2-(4-methoxy-phenyl)-vinyl]-1-methyl-1H-imidazole] | 5 to 10 µM
27 | Cc1nc(C#Cc2ccccc2)c([N+](=O)[O-])n1C [Example 30, 1,2-Dimethyl-5-nitro-4-phenylethynyl-1H-imidazole] | 0.02 µM
28 | CCOC(=O)Cn1c(C#Cc2ccccc2)nc(Cl)c1Cl [Example 21, (4,5-Dichloro-2-phenylethynyl-imidazol-1-yl)-acetic acid ethyl ester] | 0.52 µM
29 | Cn1cnc(C#Cc2ccccc2)c1 [Example 29, 1-Methyl-4-phenylethynyl-1H-imidazole] | 0.5 µM
30 | Cn1cncc1C#Cc1ccccc1 [Example 22, 1-Methyl-5-phenylethynyl-1H-imidazole] | 0.22 µM
31 | CCOC(=O)c1c(C)nc(C#Cc2ccc(N)cc2)n1C [Example 19, 2-(4-Amino-phenylethynyl)-3,5-dimethyl-3H-imidazole-4-carboxylic acid ethyl ester] | 1.53 µM
32 | Cn1cncc1C=Cc1ccccc1 [Example 44, 1-Methyl-5-styryl-1H-imidazole] | 8 µM
33 | CC(C)c1nc(C=Cc2ccc(F)cc2)n(C)c1C(C)C [Example 33, 2-[2-(4-Fluoro-phenyl)-vinyl]-4,5-diisopropyl-1-methyl-1H-imidazole] | 5 to 10 µM
34 | COc1ccc2[nH]c(C#Cc3ccccc3)c(CCNC(C)=O)c2c1 [Example 23, N-[2-(5-Methoxy-2-phenylethynyl-1H-indol-3-yl)-ethyl]-acetamide] | 0.58 µM
35 | Cn1ccnc1C#Cc1ccccc1F [Example 18, 2-(2-Fluoro-phenylethynyl)-1-methyl-1H-imidazole] | 0.07 µM
36 | C(#Cc1ncn2c1CSc1ncccc1-2)c1ccccc1 [Example 24, 3-Phenylethynyl-4H-5-thia-2,6,9b-triaza-cyclopenta[a]naphthalene] | 0.15 µM
37 | Cc1noc(-c2c(C)nc(C#Cc3ccccc3)n2C)n1 [Example 12, 5-(3,5-Dimethyl-2-phenylethynyl-3H-imidazol-4-yl)-3-methyl-[1,2,4]oxadiazole] | 0.011 µM

test system: not given; assay: not given; details: not given

Row | Compound | melting point
38 | Cc1nc(C#Cc2ccccc2)n(C)c1-c1nc(C2CC2)no1 [Example 13, 3-Cyclopropyl-5-(3,5-dimethyl-2-phenylethynyl-3H-imidazol-4-yl)-[1,2,4]oxadiazole] | 120 °C
39 | Cc1noc(-c2c(C)nc(C#Cc3ccccc3)n2C)n1 [Example 12, 5-(3,5-Dimethyl-2-phenylethynyl-3H-imidazol-4-yl)-3-methyl-[1,2,4]oxadiazole] | 137 °C
